Among the data in patent US20090099167A1, “Organic compounds” (Novartis Institutes for Biomedical Research, priority 2004, published 2009) are IC50 values, retold here.

SMILES strings stand for the structures. Where two headings read alike, the source gives them in different places. Some results are limits rather than exact numbers.

The test deals with T1, human EphB4 receptor (Homo sapiens, UniProt P54760).
T1 construct: made in house; host or cells: Sf9 or Sf21 (baculovirus)
T1 sequence (P54760 566-987): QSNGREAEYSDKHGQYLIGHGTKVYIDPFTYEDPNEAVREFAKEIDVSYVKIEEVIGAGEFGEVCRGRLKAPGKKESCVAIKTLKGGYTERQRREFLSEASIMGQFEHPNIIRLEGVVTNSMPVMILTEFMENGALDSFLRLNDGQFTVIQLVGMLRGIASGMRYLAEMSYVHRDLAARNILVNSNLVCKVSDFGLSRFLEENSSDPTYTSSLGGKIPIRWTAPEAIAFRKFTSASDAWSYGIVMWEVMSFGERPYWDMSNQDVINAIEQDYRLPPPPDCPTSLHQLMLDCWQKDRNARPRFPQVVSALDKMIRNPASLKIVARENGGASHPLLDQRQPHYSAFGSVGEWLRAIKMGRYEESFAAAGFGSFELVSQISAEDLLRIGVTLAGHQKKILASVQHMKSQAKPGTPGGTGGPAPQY
As to the kind of experiment: EphB4 kinase assay, GST-EphB, 33P incorporation into poly(Glu,Tyr). Type of test: biochemical. From the text:
EphB4: Production and measure of enzymatic activity: Generation of Bac-to-Bac™ (Initrogen Life Technologies, Basel, Switzerland) GST-fusion expression vectors: Entire cytoplasmatic coding regions of the EphB-class are amplified by PCR from cDNA libraries derived from human placenta or brain, respectively. Recombinant baculovirus are generated that express the amino acid region 566-987 of the human EphB4 receptor (SwissProt Database, Accession No. P54760). GST sequence is cloned into pFastBac1® vector (Invitrogen Life Technologies, Basel, Switzerland) and PCR amplified. cDNAs encoding EphB4-receptor domains, respectively, are cloned in frame 3′prime to the GST sequence into this modified FastBac1 vector to generate pBac-to-Bac™ donor vectors. Single colonies arising from the transformation are inoculated to give overnight cultures for small scale plasmid preparation. […] By automated sequencing the inserts and approximately 50 bp of the flanking vector sequences are confirmed on both strands. Production of viruses: Viruses for each of the kinases are made according to the protocol supplied by GIBCO if not stated otherwise. In brief, transfer vectors containing the kinase domains are transfected into the DH10Bac cell line (GIBCO) and plated on selective agar plates. Colonies without insertion of the fusion sequence into the viral genome (carried by the bacteria) are blue. Single white colonies are picked and viral DNA (bacmid) isolated from the bacteria by standard plasmid purification procedures. Sf9 cells or Sf21 cells are then transfected in 25 cm2 flasks with the viral DNA using Cellfectin reagent according to the protocol. Purification of GST-tagged kinases: The centrifuged cell lysate is loaded onto a 2 mL glutathione-sepharose column (Pharmacia) and washed three times with 10 mL of 25 mM Tris-HCl, pH 7.5, 2 mM EDTA, 1 mM DTT, 200 mM NaCl. The GST-tagged proteins are then eluted by 10 applications (1 mL each) of 25 mM Tris-HCl, pH 7.5, 10 mM reduced-glutathione, 100 mM NaCl, 1 mM DTT, 10% Glycerol and stored at −70° C. Protein kinase assays: The activities of protein kinases are assayed in the presence or absence of inhibitors, by measuring the incorporation of 33P from [γ33P]ATP into a polymer of glutamic acid and tyrosine (poly(Glu,Tyr)) as a substrate. The kinase assays with purified GST-EphB (30 ng) are carried out for 15-30 min at ambient temperature in a final volume of 30 μL containing 20 mM Tris.HCl, pH 7.5, 10 mM MgCl2, 3-50 mM MnCl2, 0.01 mM Na3VO4, 1% DMSO, 1 mM DTT, 3 μg/mL poly(Glu,Tyr) 4:1 (Sigma; St. Louis, Mo., USA) and 2.0-3.0 μM ATP (γ-[33P]-ATP 0.1 μCi). The assay is terminated by the addition of 20 μL of 125 mM EDTA. Subsequently, 40 μl of the reaction mixture are transferred onto Immobilon-PVDF membrane (Millipore, Bedford, Mass., USA) previously soaked for 5 min with methanol, rinsed with water, then soaked for 5 min with 0.5% H3PO4 and mounted on vacuum manifold with disconnected vacuum source. After spotting all samples, vacuum is connected and each well rinsed with 200 μl 0.5% H3PO4. Membranes are removed and washed 4× on a shaker with 1.0% H3PO4, once with ethanol. Membranes are counted after drying at ambient temperature, mounting in Packard TopCount96-well frame, and addition of 10 μL/well of Microscint™ (Packard). IC50 values are calculated by linear regression analysis of the percentage inhibition of each compound in duplicate, at four concentrations (usually 0.01, 0.1, 1 and 10 μM). One unit of protein kinase activity is defined as 1 nmole of 33P ATP transferred from [γ33P] ATP to the substrate protein per minute per mg of protein at 37° C. Compounds of formula I show EphB4 inhibition down to 10 nM, preferably IC50 values between 0.01-1.0 μM.

[1] abbreviates: Table 4, read-out: EphB4, activity (IC50 for kinase inhibition).
The mark [2] stands for this setting: Table 5, read-out: EphB4, IC50 class.

In the case of `CN1CCN(c2ccc(-c3cnn4c(N)c(-c5cccc(O)c5)cnc34)cc2)CC1` [Example 1, 3-{7-Amino-3-[4-(4-methyl-piperazin-1-yl)-phenyl]-pyrazolo[1,5-a]pyrimidin-6-yl}-phenol], the IC50 under setting [1] is less than 10000 nM. Turning to `CN1CCN(c2cccc(-c3cnn4c(N)c(-c5cccc(O)c5)cnc34)c2)CC1` [Example 29, 3-{7-Amino-3-[3-(4-methyl-piperazin-1-yl)-phenyl]-pyrazolo[1,5-a]pyrimidin-6-yl}-phenol], the IC50 under setting [1] is less than 10000 nM.

Take `Nc1c(-c2cccc(O)c2)cnc2c(-c3cccnc3)cnn12` [Example 46, 3-[7-Amino-3-pyridin-3-yl-pyrazolo[1,5-a]pyrimidin-6-yl]-phenol]: the IC50 under setting [1] was less than 10000 nM. On to `COc1ccccc1-c1cnn2c(N)c(-c3cccc(O)c3)cnc12` [Example 48, 3-[7-Amino-3-(2-methoxy-phenyl)-pyrazolo[1,5-a]pyrimidin-6-yl]-phenol], for which the concentration for half-maximal inhibition (IC50) under setting [1] is less than 10000 nM.

On to `COc1cccc(-c2cnn3c(N)c(-c4cccc(O)c4)cnc23)c1` [Example 60, 3-[7-Amino-3-(3-methoxy-phenyl)-pyrazolo[1,5-a]pyrimidin-6-yl]-phenol], for which the 50% inhibitory concentration (IC50) under setting [1] was less than 10000 nM. In the case of `Cc1nc2c(-c3cccc(N4CCN(C)CC4)c3)cnn2c(N)c1-c1cccc(Cl)c1` [Example 72, 6-(3-Chloro-phenyl)-5-methyl-3-[3-(4-methyl-piperazin-1-yl)-phenyl]-pyrazolo[1,5-a]pyrimidin-7-ylamine], the IC50 under setting [2] was less than 1000 nM. With `Cc1nc2c(-c3ccc(N4CCN(C)CC4)cc3)cnn2c(N)c1-c1cccc(Cl)c1` [Example 73, 6-(3-Chloro-phenyl)-5-methyl-3-[4-(4-methyl-piperazin-1-yl)-phenyl]-pyrazolo[1,5-a]pyrimidin-7-ylamine], the IC50 under setting [2] was less than 1000 nM.

Take `COc1cc(N2CCN(C)CC2)ccc1-c1cnn2c(N)c(-c3cccc(Cl)c3)c(C)nc12` [Example 75, 6-(3-Chloro-phenyl)-3-[2-methoxy-4-(4-methyl-piperazin-1-yl)-phenyl]-5-methyl-pyrazolo[1,5-a]pyrimidin-7-ylamine]: under setting [2], the IC50 is less than 1000 nM.

With `COc1cc(N2CCN(C)CC2)ccc1-c1cnn2c(N)c(-c3cccc(O)c3)cnc12` [Example 76, 3-{7-Amino-3-[2-methoxy-4-(4-methyl-piperazin-1-yl)-phenyl]-pyrazolo[1,5-a]pyrimidin-6-yl}-phenol], under setting [2], the IC50 was less than 1000 nM. `CN1CCN(c2ccc(-c3cnn4c(N)c(-c5ccccc5Cl)cnc34)cc2)CC1` [Example 77, 6-(2-Chloro-phenyl)-3-[4-(4-methyl-piperazin-1-yl)-phenyl]-pyrazolo[1,5-a]pyrimidin-7-ylamine]: under setting [2], the IC50 is less than 1000 nM.

In the case of `CN1CCN(c2cccc(-c3cnn4c(N)c(-c5ccccc5Cl)cnc34)c2)CC1` [Example 78, 6-(2-Chloro-phenyl)-3-[3-(4-methyl-piperazin-1-yl)-phenyl]-pyrazolo[1,5-a]pyrimidin-7-ylamine], the IC50 under setting [2] is less than 1000 nM. `Cc1nc2c(-c3ccc(N4CCN(C)CC4)cc3)cnn2c(N)c1-c1ccc(F)cc1` [Example 79, 6-(4-Fluoro-phenyl)-5-methyl-3-[4-(4-methyl-piperazin-1-yl)-phenyl]-pyrazolo[1,5-a]pyrimidin-7-ylamine]: the IC50 under setting [2] was less than 1000 nM. `Cc1nc2c(-c3cccc(N4CCN(C)CC4)c3)cnn2c(N)c1-c1ccc(F)cc1` [Example 80, 6-(4-Fluoro-phenyl)-5-methyl-3-[3-(4-methyl-piperazin-1-yl)-phenyl]-pyrazolo[1,5-a]pyrimidin-7-ylamine]: under setting [2], the IC50 is less than 1000 nM. In the case of `Cc1nc2c(-c3cccc(N4CCN(C5CCN(C)CC5)CC4)c3)cnn2c(N)c1-c1cccc(Cl)c1` [Example 81, 6-(3-Chloro-phenyl)-5-methyl-3-{3-[4-(1-methyl-piperidin-4-yl)-piperazin-1-yl]-phenyl}-pyrazolo[1,5-a]pyrimidin-7-ylamine], under setting [2], the half-inhibitory concentration (IC50) is less than 1000 nM. In the case of `Cc1nc2c(-c3cccc(N4CCN(C)CC4)c3)cnn2c(N)c1-c1ccc(F)c(Cl)c1` [Example 82, 6-(3-Chloro-4-fluoro-phenyl)-5-methyl-3-[3-(4-methyl-piperazin-1-yl)-phenyl]pyrazolo[1,5-a]pyrimidin-7-ylamine], under setting [2], the IC50 is less than 1000 nM. The same measure, in the same setting: as for `Cc1nc2c(-c3ccc(N4CCN(C)CC4)cc3)cnn2c(N)c1-c1ccc(F)c(Cl)c1` [Example 83, 6-(3-Chloro-4-fluoro-phenyl)-5-methyl-3-[4-(4-methyl-piperazin-1-yl)-phenyl]-pyrazolo[1,5-a]pyrimidin-7-ylamine], the figure is less than 1000 nM; as for `Cc1nc2c(-c3cccc(N4CCN(C)CC4)c3)cnn2c(N)c1-c1cccc(Br)c1` [Example 84, 6-(3-Bromo-phenyl)-5-methyl-3-[3-(4-methyl-piperazin-1-yl)-phenyl]-pyrazolo[1,5-a]pyrimidin-7-ylamine], less than 1000 nM. For the compound `CN1CCN(c2cccc(-c3cnn4c(N)c(Cc5cccc(Br)c5)cnc34)c2)CC1` [Example 85, 6-(3-Bromo-benzyl)-3-[3-(4-methyl-piperazin-1-yl)-phenyl]pyrazolo[1,5-a]pyrimidin-7-ylamine], the IC50 under setting [2] was in the range of 1000 to 10000 nM. On the same count and under the same terms, the result for `CN1CCN(c2cccc(-c3cnn4c(N)c(-c5cccc(Br)c5)cnc34)c2)CC1` [Example 86, 6-(3-Bromo-phenyl)-3-[3-(4-methyl-piperazin-1-yl)-phenyl]-pyrazolo[1,5-a]pyrimidin-7-ylamine] reads 1000 to 10000 nM; that for `COc1ccc(-c2cnn3c(N)c(-c4cccc(Cl)c4)c(C)nc23)cc1` [Example 88, 6-(3-Chloro-phenyl)-3-(4-methoxy-phenyl)-5-methyl-pyrazolo[1,5-a]pyrimidin-7-ylamine], less than 1000 nM; that for `Cc1nc2c(-c3cccc(N4C[C@@H](C)O[C@@H](C)C4)c3)cnn2c(N)c1-c1cccc(Cl)c1` [Example 89, 6-(3-Chloro-phenyl)-3-[3-((2R,6S)-2,6-dimethyl-morpholin-4-yl)-phenyl]-5-methyl-pyrazolo[1,5-a]pyrimidin-7-ylamine], less than 1000 nM. As to `Cc1nc2c(-c3cccc(N4CCN(CCO)CC4)c3)cnn2c(N)c1-c1cccc(Cl)c1` [Example 90, 2-(4-{3-[7-Amino-6-(3-chloro-phenyl)-5-methyl-pyrazolo[1,5-a]pyrimidin-3-yl]-phenyl}-piperazin-1-yl)-ethanol], the half-maximal inhibitory concentration (IC50) under setting [2] was less than 1000 nM. Turning to `CN1CCN(c2cccc(-c3cnn4c(N)c(Cc5ccccc5)cnc34)c2)CC1` [Example 91, 6-Benzyl-3-[3-(4-methyl-piperazin-1-yl)-phenyl]-pyrazolo[1,5-a]pyrimidin-7-ylamine], the half-maximal inhibitory concentration (IC50) under setting [2] was less than 1000 nM. `COc1ccc(-c2cnn3c(N)c(-c4cccc(Cl)c4)c(CF)nc23)cc1OC` [Example 92, 6-(3-Chloro-phenyl)-3-(3,4-dimethoxy-phenyl)-5-fluoromethyl-pyrazolo[1,5-a]pyrimidin-7-ylamine]: the IC50 under setting [2] was less than 1000 nM.
